Results as given in patent US10323021B2, “Triazoles as NR2B receptor inhibitors” (Janssen Pharmaceuticals, Inc., priority 2014, dated 2019).

System: mice (forced swim test, model of depression)
Assay: Forced swim test in mice
Format: in vivo, mouse
Settings: p.o., 30 minutes before the test, male NMRI mice
Protocol: The compounds of the invention show significant antidepressive effects in the forced swim test in mice, an animal model of depression at doses of 100 mg/kg or below.
The method, which detects antidepressant activity, follows that described by Porsolt et al (Arch. Int. Pharmacodyn., 229, 327-336, 1977), which is incorporated by reference herein in its entirety.
Mice forced to swim in a situation from which they cannot escape rapidly become immobile. Antidepressants decrease the duration of immobility.
Male NMRI mice (Janvier, France), weighing 20-30 g, were individually placed in a cylinder (height=24 cm; diameter=13 cm) containing 10 cm water (22° C.) from which they cannot escape.
The mice were placed in the water for 6 minutes and the duration of immobility during the last 4 minutes was measured. The latency to the first bout of immobility was also recorded starting from the beginning of the test. 10 mice were studied per group. The test substance was administered p.o. 30 minutes before the test and compared with vehicle control group. The test was performed blind.

Compound	Minimum effective dose
Fc1ccc(-n2cc(Cn3ccnc3C3CC3)nn2)cc1C(F)F [Example 82, 4-(2-Cyclopropyl-imidazol-1-ylmethyl)-1-(3-difluoromethyl-4-fluoro-phenyl)-1H-[1,2,3]triazole]	60 mg/kg
OCCc1nccn1Cc1cn(-c2ccc(F)c(OC(F)F)c2)nn1 [Example 101, 1-(3-Difluoromethoxy-4-fluoro-phenyl)-4-[2-(2-hydroxy-ethyl)-imidazol-1-ylmethyl]-1H-[1,2,3]triazole]	>30 mg/kg
